Laboratory results reported in US8628961B2, “Small molecule antagonists of phosphatidylinositol-3,4,5-triphosphate (PIP3) and uses thereof” (Tufts University, priority 2010, dated 2014).

Columns and labels:
cancer cells = assay: Cancer cell invasion through matrigel; assay type: cell-based
Description: Simpson K J et al. (2004) Cancer Res 64:8694-701.

U87MG cells [1] = assay: Cell death in U87MG cells overexpressing PH domain-deficient constitutively active Akt; assay type: cell-based, human
Protocol: To further confirm the mode of action of PIT-1 in the cells is directly related to the inhibition of PIP3/Akt PH domain interaction, induction of cell death in cells overexpressing constitutively active Akt lacking PH domain, but containing a membrane-targeting myristoylation signal, was tested. […] This is not unexpected, considering that another PIT-1 target, PDK1, regulates cell survival through both Akt-dependent and Akt-independent pathways.

HUVEC = assay: Endothelial tube formation assay on Matrigel; assay type: cell-based, human; settings: P>0.05
Protocol: The tube formation assay was performed in 96-well plates. Wells were pre-coated with 70 μl of the Matrigel basement membrane matrix (BD Biosciences) per well for 1 hr at 37° C. HUVEC were suspended in serum-free M199 medium and plated on Matrigel at a density of 2×10^4 cells per well. PIT-1 was added at indicated concentrations (3.125-100 μM). After an 8 hr incubation at 37° C., phase-contrast images of the endothelial tubes were obtained using a Nikon TE2000 microscope, and tube formation was assessed by counting the number of closed tubes in five random fields from each well.

apoptosis = assay: Apoptosis features: subG1 DNA content, Western blot of caspase-3 and PARP; assay type: cell-based
Description: (§1) Since PI3K/PIP3/Akt signaling plays a critical role in the inhibition of apoptosis (Datta S R et al. (1999) Genes Dev 13:2905-27), the possibility that PITs induce apoptosis was examined. […] Proapoptotic Bcl-2 family members Bax and Bak are important mediators of apoptosis. Wei M C et al. (2001) Science 292:727-30. […] Non-apoptotic mechanisms of cell death may also play some additional, albeit less important, role in PIT-induced killing, as some cell death was still observed in Bax/Bak-deficient cells and in the presence of zVAD.fmk.

[2] = Cell death under glucose/glutamine deprivation; assay type: cell-based
U87MG cells [3] = assay: Sensitization of U87MG cells to TRAIL, ATP assay; assay type: cell-based, human; settings: 10 ng/ml TRAIL, 48 hr
Protocol: FIG. 10 is a bar graph depicting that PITs, as well as Akt inhibitor VIII, sensitize U87MG cells to killing by TRAIL. U87MG cells were incubated with 50 μM PIT-1, PIT-2, PIT-1i-1 or 10 μM Akt inhibitor VIII in the presence or absence of 10 ng/ml TRAIL for 48 hr, followed by cell viability analysis using ATP assay.
Upregulation of PI3K/Akt signaling is an important mechanism of chemoresistance of cancer cells. Blume-Jensen P et al. (2001) Nature 411:355-65; Osaki M et al. (2004) Apoptosis 9:667-76. […] Puduvalli V K et al. (2005) Apoptosis 10:233-43 TRAIL represents a particularly promising anti-cancer agent due to its intrinsic selectivity towards cancer cells which is associated with the expression of the decoy receptors by many (but not all) normal cells. Abe K et al. (2000) Ann NY Acad Sci 926:52-63. […] Oka N et al. (2005) Cancer Res 65:7546-53.

U87MG cells [4] = assay: Cell death with pan-caspase inhibitor zVAD.fmk, Sytox assay; assay type: cell-based, human; settings: 100 μM zVAD.fmk
Protocol: FIG. 11 is a bar graph depicting that cell death triggered by PIT-1 alone or in combination with TRAIL is inhibited by pan-caspase inhibitor zVAD.fmk. U87MG cells were incubated with or without 100 μM zVAD.fmk together with PIT-1 (25, 50, 100 μM) in the presence or absence of 10 ng/ml TRAIL for 24 hr, and analyzed by Sytox cell death assay.
as §1

[5] = molecular target: PH domain of Akt (His6-Akt123) (Homo sapiens (Human), UniProt P31749); assay: NMR 2D HSQC binding analysis
PH domain of Akt (His6-Akt123), sequence (P31749 1-123): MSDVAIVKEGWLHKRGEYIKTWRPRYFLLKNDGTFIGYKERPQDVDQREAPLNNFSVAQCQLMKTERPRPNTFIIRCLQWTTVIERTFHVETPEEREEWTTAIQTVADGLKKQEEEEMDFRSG
Protocol: To further characterize the mode of action of PIT-1, NMR-based analyses of PIT-1 binding to the PH domain of Akt were performed. […] PIT-1 was further titrated to identify residues primarily affected by the small molecule binding. Using published Akt2 HSQC peak assignments (Auguin D et al. (2004) J Biomol NMR 28:137-55), it was observed that the residues Trp22 (W22), Tyr26 (Y26), and Asn54 (N54), located in the PIP3 binding pocket of the Akt PH domain, are primarily affected by PIT-1. Changes in other crosspeak signals were observed only at the 2× access of PIT-1.

PH123 = PH123 (Homo sapiens (Human), UniProt P31749); assay: Lipid overlay assay of PIP3/PH123 binding
PH123, sequence (P31749 1-123): as above

U87MG cells [6] = assay: Combination with Akt kinase inhibitors in U87MG cells (western blot, ATP assay); assay type: cell-based, human; settings: 100 μM PIT-1 with 10 μM Akt inhibitor
Protocol: U87MG cells were treated with 100 μM PIT-1, or 10 μM Akt inhibitor VIII (Calbiochem) or Akt inhibitor (Calbiochem), or 100 μM PIT-1 together with 10 μM Akt inhibitor VIII or Akt inhibitor, for 12 hr and then phosphorylation events were evaluated by western blot.

U87MG cells [7] = assay: Long-term colony formation; assay type: cell-based, human
PLC-δ PH domain = PLC-δ PH domain (Homo sapiens (Human), UniProt P51178); assay: PH domain translocation assay (GFP fusion); assay type: cell-based
PLC-δ PH domain, sequence (P51178 21-130): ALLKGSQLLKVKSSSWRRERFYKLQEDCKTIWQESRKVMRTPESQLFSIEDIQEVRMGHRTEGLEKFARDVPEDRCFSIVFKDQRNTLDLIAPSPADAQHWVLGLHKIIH
Protocol: Cells were transfected with the corresponding GFP-fusion vectors, serum starved overnight, and incubated with 100 μM PITs or PIT-1 is for 2 hr, followed by stimulation with 100 ng/ml PDGF or 250 ng/ml PMA for 5 min. The translocation was analyzed using fluorescent microscope and was quantitated by counting the number of cells with translocated PH domains in five random fields.

PI3K-PDK1-Akt signaling = PI3K-PDK1-Akt signaling in growth factor-stimulated SUM159 cells; assay type: cell-based, human
SUM159 cells = assay: Actin polymerization and ruffling/lamellipodia formation after PDGF; assay type: cell-based, human; settings: SUM159, concentration-dependent
Protocol: In one set of experiments, the ability of PITs to inhibit actin polymerization and ruffling/lamellipodia formation was examined in SUM159 cells. Cells were serum starved and treated with PITs (25, 50 100 μM) or PIT-1 is (100 μM) for 8 hr, followed by PDGF (100 ng/ml) stimulation for 15 min. Cells were fixed and stained with TRITC-phalloidin to visualize actin fibers, followed by fluorescent microscopy analysis. The number of cells with ruffles/lamellipodia was counted in five random fields.

O=C(NC(=S)Nc1cc([N+](=O)[O-])cc(Cl)c1O)c1ccccc1 [PIT-1]
cancer cell invasion through matrigel (cancer cells): efficiently suppressed cancer cell invasion through matrigel | cytotoxic effects at concentrations used in migration and invasion experiments (cancer cells; P>0.05): no significant cytotoxic effects | acquisition of invasive phenotype by SUM-159 cells (cancer cells; reversible): blocked acquisition of the invasive phenotype | effect of overexpressed PH domain-deficient Akt on killing of U87MG cells (U87MG cells [1]): significantly protected U87MG cells from PIT-1 killing | cell viability under tube formation conditions (HUVEC): No loss of cell viability | subG1 DNA content in cells (apoptosis; P<0.01): significant increase in subG1 DNA content | cleavage/activation of caspase-3 and processing of PARP (apoptosis; Western blot): induced the cleavage/activation | cell death in combination with glucose/glutamine deprivation [2]: dramatic induction of cell death | sensitization of U87MG cells to killing by TRAIL (U87MG cells [3]): substantially sensitized U87MG cells to killing by TRAIL | cell death, alone or with TRAIL, in presence of zVAD.fmk (U87MG cells [4]): inhibited by a pan-caspase inhibitor zVAD.fmk | changes in 2D HSQC 1H-15N correlation spectrum of His6-Akt123 [5]: induces significant changes | inhibitory effect on PIP3/PH123 binding (PH123): concentration-dependent inhibitory effect | combination with Akt kinase inhibitors: Akt activation, downstream phosphorylation, cell survival (U87MG cells [6]): acted synergistically | long-term colony formation by U87MG cells (U87MG cells [7]): suppressed long-term colony formation | cellular localization of PLC-δ PH domain (PLC-δ PH domain): no inhibitory effect | PI3K-PDK1-Akt signaling in SUM159 cells (PI3K-PDK1-Akt signaling): significantly suppressed PI3K-PDK1-Akt signaling | PDGF-induced membrane ruffling (SUM159 cells): efficiently inhibited
